What all share (assay type): cell-based
In one experiment the test system is Target C. Kind of experiment: Gene panel canonical junction qPCR assay, Target C CJ mRNA. To be noted: Table 9, CJ mRNA decrease, read-out: Target C IC50 (decrease in CJ mRNA levels). In general terms: In qPCR the cycle at which signal appears reflects the starting amount.
Experiment [1] concerns HTT. In words: Gene panel canonical junction qPCR assay, HTT CJ mRNA. To be noted: Table 9, CJ mRNA decrease, read-out: HTT IC50 (decrease in CJ mRNA levels).
The subject of another experiment is SMN2. Kind of experiment: Gene panel canonical junction qPCR assay, SMN2 CJ mRNA. To be noted: Table 9, CJ mRNA decrease, read-out: SMN2 IC50 (decrease in CJ mRNA levels).
Experiment [2] has as its system HTT. In words: Splicing assay (RT-qPCR on cell lysates) monitoring HTT splice variants: AJ and CJ mRNA. To be noted: concentration having 50% response. In a few lines:
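Cell lysates were analysed by RT-qPCR, with ΔCt taken against a housekeeping gene and normalised to DMSO to give RQ by 2^(−ΔΔCt). Assay windows were set at 9 ΔCt for AJ and 3.5 ΔCt for CJ, and 4-parameter fits gave AC50 for the AJ increase and IC50 for the CJ decrease.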

The mark [3] stands for this setting: Table 8, decrease in CJ mRNA, read-out: HTT CJ AC50.
[4] abbreviates: Table 8, increase in AJ mRNA, read-out: HTT AJ AC50.

Like-named read-outs stand apart in the source and are kept apart here.

Our source for the IC50 and AC50 values is US20230140983A1, “PYRIDAZINE DERIVATIVES FOR MODULATING NUCLEIC ACID SPLICING” (REMIX THERAPEUTICS INC., priority 2020, published 2023).

For `CCN(c1ccc(-c2ccc(-c3cn[nH]c3)c3ncsc23)nn1)C1CCNCC1` [Compound 224, N-ethyl-N-(piperidin-4-yl)-6-[4-(1H-pyrazol-4-yl)-1,3-benzothiazol-7-yl]pyridazin-3-amine], the IC50 (in general, the point on the concentration scale where inhibition reaches its midpoint) was more than 10000 nM with Target C, more than 10000 nM in the experiment with HTT [1] and 1000 to 10000 nM in the experiment on SMN2. The AC50 in the experiment on HTT [2] (setting [3]) and in the experiment with HTT [2] (setting [4]) was more than 10000 nM each time.
Regarding `c1nc2c(-c3cn[nH]c3)ccc(-c3ccc(C4CCNCC4)nn3)c2s1` [Compound 206], the results for the IC50 in the experiment on Target C, in the experiment on HTT [1] and in the experiment on SMN2 were more than 10000 nM, 1000 to 10000 nM and less than 100 nM, respectively. The AC50 (in general, the concentration at which the activity in the assay is half-maximal) with HTT [2] (setting [3]) was 1000 to 10000 nM; in the experiment with HTT [2] (setting [4]), more than 10000 nM.
As to `CC1(C)CC(Oc2ccc(-c3ccc(-c4cn[nH]c4)c4cn[nH]c34)nn2)CCN1` (stereo not drawn) [Compound 220], the IC50 was more than 10000 nM in the experiment on Target C, 1000 to 10000 nM with HTT [1] and 100 to 1000 nM in the experiment with SMN2. Moreover, the results for the AC50 in the experiment on HTT [2] (setting [3]) and with HTT [2] (setting [4]) were 1000 to 10000 nM and more than 10000 nM, respectively.
Consider `CN(c1ccc(-c2ccc(-c3cn[nH]c3)c3ncsc23)nn1)[C@@H]1C[C@H]2CC[C@@H](C1)N2` [Compound 213, (exo)-N-methyl-N-{6-[4-(1H-pyrazol-4-yl)-1,3-benzothiazol-7-yl]pyridazin-3-yl}-8-azabicyclo[3.2.1]octan-3-amine], for which the IC50 in the experiment with Target C, in the experiment on HTT [1] and in the experiment on SMN2 was less than 100 nM in each case. In addition, the AC50 in the experiment with HTT [2] (setting [3]) and in the experiment with HTT [2] (setting [4]) was less than 100 nM each time.
`CC1(C)CC(Nc2ccc(-c3ccc(-c4cn[nH]c4)c4ncsc34)nn2)CC(C)(C)N1` [Compound 186]: the figures for the IC50 in the experiment with Target C, with HTT [1] and with SMN2 were 100 to 1000 nM, less than 100 nM and less than 100 nM, respectively. Moreover, the AC50 was less than 500 nM with HTT [2] (Table 7, decrease in CJ mRNA, read-out: HTT CJ AC50); less than 500 nM in the experiment on HTT [2] (Table 7, increase in AJ mRNA, read-out: HTT AJ AC50); less than 100 nM with HTT [2] (setting [3]); less than 100 nM in the experiment with HTT [2] (setting [4]).
